Measured values: patent US4005213A, “2,5-Substituted-1,3,4-thiadiazoles as fungicides” (Schering Aktiengesellschaft, priority 1968, dated 1977)

Experiments:
Pythium ultimum [1] = test: Limit concentration of soil-fungicidal effectiveness, Pythium ultimum infested soil, peas (Example 1); format: in vivo; conditions: Globisporangium ultimum, 20 to 23 days, 22°-25° C., germination at least 90% vs steamed soil
Experimental: (§1) Limit concentrations of the soil-fungicidal effectiveness at homogeneous mixture of the products with the infested soil. Basic condition in the evaluation are a sound root formation without fungus necroses and germination of the seed of at least 90% compared with the result obtained in steamed soil. Per concentration there were seeded 25 grains of peas of the variety "Miracle of Kelvedon" (marrow pea) without a waiting period. the cultivation time in the tests was 20 to 23 days at a temperature of 22°-25° C. Four commercial products were included in the test series.
Pythium ultimum: Steamed compost soil was inoculated with mycelium of Pythium ultimum

Pythium ultimum [2] = test: Pea test in soil inoculated with Pythium ultimum (Example 2); format: in vivo; parameters: key to Root evaluation (1-4): 4 = white roots, no necroses … 1 = severe necroses, roots rotted; conditions: for Root evaluation (1-4): 3 weeks; for Number of sound peas after 3 wks.: 25 grains seeded
Experimental: Steamed compost soil was inoculated with mycelium of Pythium ultimum. […] The following table lists the number of germinated sound peas, the weight of the fresh plant, and a root evaluation after a cultivation period of 3 weeks at 22°-25° C.
4 = white roots, without fungus necroses
3 = white roots, slight fungus necroses
2 = brown roots, more intense fungus necroses
1 = severe fungus necroses, roots rotted

Rhizoctonia solani [3] = test: Pea test in soil inoculated with Rhizoctonia solani (Example 3); format: in vivo; conditions: for Root evaluation (1-4): 3 weeks
Description: Steamed compost soil was inoculated with mycelium of Rhizoctonia solani. After homogeneous mixture of the products with the infested soil, the products were present in the form of 20% powder preparations, the seeding of 25 grains of marrow peas of the variety Miracle of Kelvedon per concentration was effected without waiting period in clay dishes holding 1 liter of soil. The table lists the number of germinated sound peas, the weight of the fresh plant, and a root evaluation after a cultivation period of 3 weeks at 22°-25° C.

Damping-off Fungi = test: Cotton seed disinfection in normal compost soil (Example 6); format: in vivo; conditions: 100 mg active ingr. per kg of seed, 15 days, 22°-25° C.
Experimental: Cotton seeds disinfected with 10% formulations were seeded in normal compost soil (Damping-off Fungi), 25 grains per concentration. After a cultivation time of 15 days at 22°-25° C., the number of germinated sound cotton seedlings and their weight as fresh plants were determined.

Aspergillus niger = test: Agar test, Aspergillus niger (Example 7); format: cell-based; conditions: 10 ppm in malt extract agar, 5 days at 22° C.; control 100
Experimental: (§2) The fungicidal action of the agents according to the invention was tested in artificial nutrient media against plant-pathogenic fungi in Petri dishes (agar test). The procedure was to sterilize the medium consisting of 2% malt extract and 1.5% agar-agar powder. Before the solidification of the medium, the active substances were added to it, mixing thoroughly, so that the medium received 10 parts of active substance per million (ppm). After the solidification of the medium, the latter was inoculated with a platinum dropper which contained 100 spores each of the fungi to be tested, and after 5 days at 22° C., an evaluation was made by measuring the diameter of the colonies in mm.

Stemphylium ilicis = test: Agar test, Stemphylium ilicis (Example 7); format: cell-based; conditions: 10 ppm in malt extract agar, 5 days at 22° C.; control 100
Experimental: as §2

Meloidogyne incognita = test: Nematocidal action against root gall nematodes, cucumber (Example 8); format: in vivo; conditions: reduction of attack, 30 days
Experimental: The products as 20% powder preparations were homogeneously admixed with a compost soil heavily infested by root gall nematodes. Without a waiting period, 20 cucumber seeds per concentration were seeded. After a cultivation time of 30 days at a temperature of 23°-25° C., the nematocidal action was evaluated by counting the root galls formed in the waterbath. The following table states the reduction of attack in percent. In the control, an average of 90 root galls per seedling had formed.

Pythium ultimum [4] = test: Fungistatic and fungicidal action on Pythium ultimum of preparations with varying active ingredient percentages (Example 4); format: in vivo; conditions: for Number of sound peas after 3 wks.: 25 grains seeded
Description: Comparison of the fungistatic and fungicidal action on Pythium ultimum when using preparations with varying active ingredient percentages on siliceous clay. Steamed compost soil was inoculated with mycelium of Pythium ultimum. After forming a homogeneous mixture of the products with the infested soil, […], the seeding of 25 grains of marrow peas of the variety Miracle of Kelvedon per concentration in clay dishes holding 1 liter of soil followed without a waiting period. In the table is stated the number of germinated sound peas, the weight of the fresh plant, and a root evaluation after a cultivation period of 3 weeks at 22°-25° C.

Pyrenochaeta lycopersici = test: Control of Pyrenochaeta lycopersici, corky root disease of the tomato, open field (Example 9); format: in vivo; conditions: for Weight of single tomato (% of untreated): 0 g = 100%; for Tomatoes per plant / Weight of single tomato / Yield per plant: 10% granulate
Description: Control of Pyrenochaeta lycopersici, corky root disease of the tomato.
On a naturally infested open field area, 2-dichloromethyl-5-methylsulfonyl-1,3,4-thiadiazole was scattered as a 10% granulate formulation and hoed in 20 cm deep. […] After a reaction period of 3 weeks, tomato plants of the variety "Ronald-M" which were 8 weeks old were set out at a distance from each other of 50 × 70 cm. The harvest results indicated in the table are average values of 40 plants per lot and refer to harvested ripe tomatoes.

[5] = acute oral toxicity in rats; conditions: rat, in vivo
Rhizoctonia solani [6] = test: Limit concentration of soil-fungicidal effectiveness, Rhizoctonia solani infested soil, peas (Example 1); format: in vivo; conditions: 20 to 23 days, 22°-25° C., germination at least 90% vs steamed soil
Experimental: as §1
Rhizoctonia solani: Steamed compost soil was inoculated with mycelium of Rhizoctoniz solani.

Botrytis cinerea = test: Agar test, Botrytis cinerea (Example 7); format: cell-based; conditions: 10 ppm in malt extract agar, 5 days at 22° C.; control 100
Experimental: as §2

[7] = test system: Colletotrichum gloeosporioides; test: Agar test, Colletotrichum gloeosporioides (Example 7); format: cell-based; conditions: 10 ppm in malt extract agar, 5 days at 22° C.; control 100
Experimental: as §2

Helminthosporium sativum = test: Agar test, Helminthosporium sativum (Example 7); format: cell-based; conditions: 10 ppm in malt extract agar, 5 days at 22° C.; control 100
Experimental: as §2

[8] = 10 mg active ingr. per liter of soil
[9] = 20 mg active ingr. per liter of soil
[10] = 30 mg active ingr. per liter of soil
[11] = 40 mg active substance per liter of soil
[12] = 60 mg active substance per liter of soil
[13] = 5% formulation, 6 mg active ingr. per liter of soil
[14] = 5% formulation, 10 mg active ingr. per liter of soil
[15] = 10% formulation, 10 mg active ingr. per liter of soil
[16] = 20% formulation, 6 mg active ingr. per liter of soil
[17] = 10 g active ingr. per square meter
[18] = 20 g active ingr. per square meter
[19] = 200 mg active ingr. per liter of soil

Row | SMILES | minimal effective concentration (Pythium ultimum [1]) [µg/mL] | Root evaluation (1-4) (Pythium ultimum [2]; [8]) | Root evaluation (1-4) (Pythium ultimum [2]; [9]) | Root evaluation (1-4) (Pythium ultimum [2]; [10]) | Root evaluation (1-4) (Rhizoctonia solani [3]; [9]) | Root evaluation (1-4) (Rhizoctonia solani [3]; [10]) | Sound plants in % (Damping-off Fungi) [%] | diameter of the colonies, Aspergillus niger (Aspergillus niger) [mm] | diameter of the colonies, Stemphylium ilicis (Stemphylium ilicis) [mm] | Nematocidal action in % (Meloidogyne incognita) (Meloidogyne incognita; [11]) [%] | Nematocidal action in % (Meloidogyne incognita) (Meloidogyne incognita; [12]) [%] | minimal effective concentration (Rhizoctonia solani [6]) [µg/mL] | also measured
1 | C[S+]([O-])c1nnc(C(Cl)Cl)s1 (centres unmarked) [Compound 3, 2-dichloromethyl-5-methylsulfinyl-1,3,4-thiadiazole] | 10 | 4 | 4 | 4 | 1 | 4 | 100 | 50 | 0 | 100 | 100 | – | Number of sound peas after 3 wks. (Rhizoctonia solani [3]; 10 mg active ingr. per liter of soil, 25 grains seeded): 0
2 | CS(=O)(=O)c1nnc(C(Cl)Cl)s1 [Compound 17, 2-dichloromethyl-5-methylsulfonyl-1,3,4-thiadiazole] | 10 | 4 | 4 | 4 | 4 | 4 | 100 | 0 | 0 | 90 | 94 | – | Number of sound peas after 3 wks. (Pythium ultimum [2]; [9]): 24; Number of sound peas after 3 wks. (Pythium ultimum [2]; [10]): 24; Weight of fresh plant (Pythium ultimum [4]; [13]): 9 g; Number of sound peas after 3 wks. (Pythium ultimum [4]; [13]): 12; Weight of fresh plant (Pythium ultimum [4]; [14]): 20 g; Number of sound peas after 3 wks. (Pythium ultimum [4]; [14]): 24; Weight of fresh plant (Pythium ultimum [4]; 10% formulation, 6 mg active ingr. per liter of soil): 15 g; Weight of fresh plant (Pythium ultimum [4]; [15]): 24 g; Number of sound peas after 3 wks. (Pythium ultimum [4]; [15]): 22; Weight of fresh plant (Pythium ultimum [4]; [16]): 17 g; Number of sound peas after 3 wks. (Pythium ultimum [4]; [16]): 22; Weight of fresh plant (Pythium ultimum [4]; 20% formulation, 10 mg active ingr. per liter of soil): 16 g; Weight of single tomato (% of untreated) (Pyrenochaeta lycopersici; [17]): 110%; Tomatoes per plant (Pyrenochaeta lycopersici; [17]): 27; Weight of single tomato (Pyrenochaeta lycopersici; [17]): 66 g; Yield per plant (Pyrenochaeta lycopersici; [17]): 1774 g; Weight of single tomato (% of untreated) (Pyrenochaeta lycopersici; [18]): 130%; Tomatoes per plant (Pyrenochaeta lycopersici; [18]): 28; Weight of single tomato (Pyrenochaeta lycopersici; [18]): 78 g; Yield per plant (Pyrenochaeta lycopersici; [18]): 2209 g
3 | CS(=O)(=O)c1nnc(C(Cl)(Cl)Cl)s1 [Compound 21, 2-trichloromethyl-5-methylsulfonyl-1,3,4-thiadiazole] | 40 | – | – | – | 4 | 4 | 100 | 0 | 0 | – | – | – | Root evaluation (1-4) (Rhizoctonia solani [3]; [8]): 4; LD50 [5]: 717 mg/kg
4 | CS(=O)(=O)c1nnc(C(F)(F)Cl)s1 [Compound 54, 2-chlorodifluoromethyl-5-methylsulfonyl-1,3,4-thiadiazole] | 10 | – | – | – | – | – | – | – | – | – | – | 20 | –
5 | C[S+]([O-])c1nnc(C(F)(F)Cl)s1 (centres unmarked) [Compound 55, 2-chlorodifluoromethyl-5-methylsulfinyl-1,3,4-thiadiazole] | 10 | – | – | – | – | – | – | – | – | – | – | 10 | –
6 | S=C([S-])NCCNC(=S)[S-].[Zn+2] [Zinc ethylene-bis-dithiocarbamate, reference compound] | – | – | – | – | – | – | – | 78 | 55 | – | – | – | Root evaluation (1-4) (Pythium ultimum [2]; [19]): 1; Number of sound peas after 3 wks. (Pythium ultimum [2]; [19]): 14; diameter of the colonies, Botrytis cinerea (Botrytis cinerea): 36 mm; diameter of the colonies, Colletotrichum gloeosporioides [7]: 81 mm; diameter of the colonies, Helminthosporium sativum (Helminthosporium sativum): 50 mm
